Our source for the GI50 and TGI values is PubChem BioAssay (NCI).

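Assay format: 96-well plates, 48-hour exposure. Here, GI50 denotes the concentration required for 50% inhibition of growth. TGI is the concentration that stops growth completely.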 A value given as a limit tells only on which side of the number the result lay.

Common to all, as to test: NCI tumour cell line growth inhibition, 48 h
The subject of test [1] is HCT-116 colon.
Test [2] has as its system HL-60(TB) leukemia.
In test [3] the test system is HOP-62 NSCLC.
Test [4] deals with HS 578T breast.
In test [5] the test system is IGROV1 ovarian.
The test system of test [6] is K-562 leukemia.
Test [7] has as its system PC-3 prostate.
The test system of test [8] is SK-MEL-5 melanoma.
Test [9] relates to U251 CNS.
The test system of test [10] is UACC-257 melanoma.

Regarding `O=C(NC1CC1)c1ccc(-c2nc3ccc4[nH]ncc4c3c3c2CCCC3)cc1`, the GI50 in [1] is 1.34 µM; in [2], 1.59 µM; in test [3], 1.25 µM; in test [4], 1.06 µM; in [5], 0.989 µM; in test [6], 1.95 µM. Further, the GI50 is 2.29 µM in test [7], 2.67 µM in [8], 2.19 µM in [9] and 9.1 µM in test [10]. Besides, the TGI in [1] was 14 µM; in [2], 6.99 µM; in test [3] it was 24.8 µM; in [4], 3.37 µM; in [5], over 50 µM; in test [6], over 50 µM. Also, the TGI is 29.7 µM in test [7], 9.83 µM in test [8], 13.7 µM in test [9] and 34.7 µM in [10].

Regarding `CN(C)CCCN=C(N)N`, the TGI in test [1], in test [2], in test [3], in test [4], in test [5] and in test [6] was over 100 µM in each case. In addition, the TGI in [7], in test [8], in [9] and in [10] was over 100 µM throughout.
